Key:
[1] = test system: grass carp PRL promoter deletion/mutation/truncation constructs in αT3-1 cells; assay: Deletion, mutagenesis and truncation analysis of PRL promoter activity, dual-luciferase, αT3-1 cells; format: cell-based, grass carp (promoter); rat (αT3-1 cells, as printed); details: PACAP 10 nM, 24 hrs, n = 4
Description: To test the functionality of the grass carp PRL promoter, a series of deletion constructs were prepared by subcloning decreasing lengths of 5′ promoter sequence of PRL gene into the luciferase-expressing reporter pGL3.Basic. […] In this study, the upstream promoter of the carp PRL gene, including pPRL(−1156), pPRL(−914), pPRL(−670), pPRL(−448) and pPRL(−306), acted as strong promoters in αT3-1 cells. […] Subsequently, mutagenesis and truncation analysis were performed to investigate the role of transcription sites in PRL promoter activity.
Figure 3 Deletion, mutagenesis and truncation analysis of PRL promoter activity in αT3-1 cells. (A) Deletion analysis of the oPACAP38-induced PRL promoter activity. […] TEXT PRINTED IN THE PICTURE: (A) oPACAP38: pPRL(-1156).LUC: X 4.80 ± 0.15 *; pPRL(-914).LUC: X 4.51 ± 0.26 *; pPRL(-670).LUC: X 3.85 ± 0.17 *; pPRL(-448).LUC: X 3.79 ± 22 *; pPRL(-306).LUC: X 3.83 ± 0.12 *; pPRL(-166).LUC: X 3.26 ± 0.20 *; pPRL(-124).LUC: X 3.57 ± 0.19 *; pPRL(-57).LUC: X 2.09 ± 0.12 * DOUBTS OF THE COPYIST ABOUT THIS PICTURE: oPACAP38, pPRL(-448).LUC: the error reads '± 22' with no decimal point visible; '0.' may be missing or hidden / oPACAP38, pPRL(-306).LUC: 3.83 or 3.63 (small rotated print crossed by the dotted frame line) / The fold values (X ...) are printed over the oPACAP38 bars, one per promoter construct. […]

CREB = details: mammalian cell models; via cAMP/PKA, cAMP/ERK and/or PLC/PKC; cited from earlier work
Description: CREB is a member of the leucine zipper transcription factors and well-known to be involved in the activation of cAMP-inducible genes. […] Expression of a dominant-negative form of CREB (MCREB) inhibited basal and Forskolin-induced PRL promoter activity and PRL mRNA expression in rat lactotrophs ...

[2] = test system: tCREB in grass carp pituitary cells; assay: Western blot of tCREB in primary grass carp pituitary cells; details: oPACAP38, 24 hrs

## pituitary adenylate cyclase-activating peptide [PACAP]
[1]; AP-1 site −136 to −130, pPRL(−166).Luc
  PACAP-stimulated promoter activity upon mutagenesis and truncation of AP-1 site: significantly suppressed
[1]; C/EBPalpha site −226 to −217, pPRL(−306).Luc
  PACAP-stimulated promoter activity upon mutagenesis and truncation of C/EBPalpha site: significantly suppressed
CREB
  CREB phosphorylation: trigger CREB phosphorylation
[2]
  total CREB production: stimulated total CREB production
